The values below come from patent publication US9802927B2, “Oxadiazine compounds and methods of use thereof” (Denali Therapeutics, Inc., priority 2015, dated 2017).

This experiment deals with Aβ42. In words: In vitro cell screening assay in H4 cells expressing human APP751: Aβ42 by sandwich ELISA. Type of experiment: cell-based. The conditions noted are these: compounds 0.003-10 μM, incubated overnight (16-18 h), sandwich ELISA of supernatant. The essentials: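 H4 neuroglioma cells stably expressing wild-type human APP751, switched to Pro293 medium and treated with compounds (0.003-10 μM, 0.33% DMSO) for 16-18 h at 37 °C. Supernatant Aβ42 quantified by sandwich ELISA (C-terminal capture, 4G8-HRP detection, A450); EC50 by sigmoidal fit normalized to DMSO and DAPT controls.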
(An ELISA detects its analyte on a solid surface through an enzyme-linked reagent.)

Take `COc1nc(C2=NOCC(c3cn(C4CC4)c4cccc(F)c34)N2)ccc1-n1cnc(C)c1` (single isomer, unassigned; (+)) [Example 222A, (+)-5-(1-cyclopropyl-4-fluoro-1H-indol-3-yl)-3-(6-methoxy-5-(4-methyl-1H-imidazol-1-yl)pyridin-2-yl)-5,6-dihydro-4H-1,2,4-oxadiazine]: the EC50 came to 11.2 nM. In other words, the double-digit nanomolar range. Still for that read-out and setting: next, `COc1nc(C2=NOCC(c3cc4cccc(F)c4o3)N2)ccc1-n1cnc(C)c1` (single isomer, unassigned; (-)) [Example 89A, (−)-5-(7-fluorobenzofuran-2-yl)-3-(6-methoxy-5-(4-methyl-1H-imidazol-1-yl)pyridin-2-yl)-5,6-dihydro-4H-1,2,4-oxadiazine]: 2340 nM; `COc1nc(C2=NOCC(C3Cc4ccccc4C3)N2)ccc1-n1cnc(C)c1` (single isomer, unassigned; (-)) [Example 246A, (−)-5-(2,3-dihydro-1H-inden-2-yl)-3-(6-methoxy-5-(4-methyl-1H-imidazol-1-yl)pyridin-2-yl)-5,6-dihydro-4H-1,2,4-oxadiazine]: 576 nM. `COc1nc(C2=NOCC(C3CCC(F)(F)CC3)N2)ccc1-n1cnc(C)c1` (single isomer, unassigned; (-)) [Example 139A, (−)-5-(4,4-difluorocyclohexyl)-3-(6-methoxy-5-(4-methyl-1H-imidazol-1-yl)pyridin-2-yl)-5,6-dihydro-4H-1,2,4-oxadiazine] yielded an EC50 (Homo sapiens) of 2130 nM. As to `COc1nc(C2=NOCC(c3cc(Cl)cc(Cl)c3)N2)ccc1-n1cnc(C)c1` (single isomer, unassigned; (-)) [Example 118A, (−)-5-(3,5-dichlorophenyl)-3-(6-methoxy-5-(4-methyl-1H-imidazol-1-yl)pyridin-2-yl)-5,6-dihydro-4H-1,2,4-oxadiazine], the EC50 was 1510 nM.

With `COc1nc(C2=NOCC(c3cc(F)c(Cl)c(F)c3)N2)ccc1-n1cnc(C)c1` (single isomer, unassigned; (-)) [Example 267A, (−)-5-(4-chloro-3,5-difluorophenyl)-3-(6-methoxy-5-(4-methyl-1H-imidazol-1-yl)pyridin-2-yl)-5,6-dihydro-4H-1,2,4-oxadiazine], the EC50 is over 3000 nM. Still for that read-out and setting: as for `COc1nc(C2=NOCC(c3cc4ccccc4n3C)N2)ccc1-n1cnc(C)c1` (single isomer, unassigned; (-)) [Example 205A, (−)-3-(6-methoxy-5-(4-methyl-1H-imidazol-1-yl)pyridin-2-yl)-5-(1-methyl-1H-indol-2-yl)-5,6-dihydro-4H-1,2,4-oxadiazine], the figure is 1730 nM. Same read-out and setting: next, `COc1nc(C2=NOCC(c3cc4ccc(C5CC5)cc4o3)N2)ccc1-n1cnc(C)c1` (single isomer, unassigned; (+)) [Example 236B, (+)-5-(6-cyclopropylbenzofuran-2-yl)-3-(6-methoxy-5-(4-methyl-1H-imidazol-1-yl)pyridin-2-yl)-5,6-dihydro-4H-1,2,4-oxadiazine]: 9.2 nM. In turn, `COc1nc(C2=NOCC(c3cccc(S(C)(=O)=O)c3)N2)ccc1-n1cnc(C)c1` (single isomer, unassigned; (+)) [Example 214B, (+)-3-(6-methoxy-5-(4-methyl-1H-imidazol-1-yl)pyridin-2-yl)-5-(3-(methylsulfonyl)phenyl)-5,6-dihydro-4H-1,2,4-oxadiazine] yielded an EC50 of 904 nM. Against the preceding compound, the EC50 is about 98-fold higher. On the same count and under the same terms, next, `COc1nc(C2=NOCC(c3cc4cc(C5CC5)ccc4o3)N2)ccc1-n1cnc(C)c1` (single isomer, unassigned; (+)) [Example 234B, (+)-5-(5-cyclopropylbenzofuran-2-yl)-3-(6-methoxy-5-(4-methyl-1H-imidazol-1-yl)pyridin-2-yl)-5,6-dihydro-4H-1,2,4-oxadiazine]: 9.5 nM. On the same count and under the same terms, as for `COc1nc(C2=NOCC(c3cccc(C(F)(F)F)c3)N2C)ccc1-n1cnc(C)c1` (centres unmarked) [Example 30B, 3-(6-methoxy-5-(4-methyl-1H-imidazol-1-yl)pyridin-2-yl)-4-methyl-5-(3-(trifluoromethyl)phenyl)-5,6-dihydro-4H-1,2,4-oxadiazine], the figure is over 3000 nM; as for `COc1nc(C2=NOCC(c3cn(C)c4ccc(Cl)cc34)N2)ccc1-n1cnc(C)c1` (single isomer, unassigned; (+)) [Example 193B, (+)-5-(5-chloro-1-methyl-1H-indol-3-yl)-3-(6-methoxy-5-(4-methyl-1H-imidazol-1-yl)pyridin-2-yl)-5,6-dihydro-4H-1,2,4-oxadiazine], 4.9 nM. As to `COc1nc(C2=NOCC(C3CCS(=O)(=O)CC3)N2)ccc1-n1cnc(C)c1` (single isomer, unassigned; (+)) [Example 177A, (+)-4-(3-(6-methoxy-5-(4-methyl-1H-imidazol-1-yl)pyridin-2-yl)-5,6-dihydro-4H-1,2,4-oxadiazin-5-yl) tetrahydro-2H-thiopyran 1,1-dioxide], the EC50 (Homo sapiens) is over 3000 nM.

Compound `COc1nc(C2=NOCC(c3ccc(Cl)c(C(F)(F)F)c3)N2)ccc1-n1cnc(C)c1` (single isomer, unassigned) [Example 253B, 5-(4-chloro-3-(trifluoromethyl)phenyl)-3-(6-methoxy-5-(4-methyl-1H-imidazol-1-yl)pyridin-2-yl)-5,6-dihydro-4H-1,2,4-oxadiazine] returned an EC50 of 8.4 nM. The same measure, in the same setting: next, `COc1nc(C2=NOCC(c3nc4ccccc4o3)N2)ccc1-n1cnc(C)c1` (single isomer, unassigned; (+)) [Example 203B, (+)-2-(3-(6-methoxy-5-(4-methyl-1H-imidazol-1-yl)pyridin-2-yl)-5,6-dihydro-4H-1,2,4-oxadiazin-5-yl)benzo[d]oxazole]: 256 nM; `COc1nc(C2=NOCC(c3cc(F)cc(Cl)c3)N2)ccc1-n1cnc(C)c1` (single isomer, unassigned; (+)) [Example 111B, (+)-5-(3-chloro-5-fluorophenyl)-3-(6-methoxy-5-(4-methyl-1H-imidazol-1-yl)pyridin-2-yl)-5,6-dihydro-4H-1,2,4-oxadiazine]: 22.6 nM.

For the compound `COc1nc(C2=NOCC(C3CC(F)(F)C3)N2)ccc1-n1cnc(C)c1` (single isomer, unassigned; (-)) [Example 180A, (−)-5-(3,3-difluorocyclobutyl)-3-(6-methoxy-5-(4-methyl-1H-imidazol-1-yl)pyridin-2-yl)-5,6-dihydro-4H-1,2,4-oxadiazine], the EC50 was over 3000 nM. The same measure, in the same setting: next, `COc1nc(C2=NOCC(c3cn(C)c4cc(C(F)(F)F)ccc34)N2)ccc1-n1cnc(C)c1` (single isomer, unassigned; (+)) [Example 197A, (+)-3-(6-methoxy-5-(4-methyl-1H-imidazol-1-yl)pyridin-2-yl)-5-(1-methyl-6-(trifluoromethyl)-1H-indol-3-yl)-5,6-dihydro-4H-1,2,4-oxadiazine]: 3.4 nM. Where the note is “Homo sapiens”, `COc1nc(C2=NOCC(C3CCOCC3)N2)ccc1-n1cnc(C)c1` (single isomer, unassigned; (-)) [Example 143A, (−)-3-(6-methoxy-5-(4-methyl-1H-imidazol-1-yl)pyridin-2-yl)-5-(tetrahydro-2H-pyran-4-yl)-5,6-dihydro-4H-1,2,4-oxadiazine] had an EC50 of over 3000 nM.

On to `COc1nc(C2=NOCC(c3c[nH]c4ccccc34)N2)ccc1-n1cnc(C)c1` (single isomer, unassigned) [Example 47A, 5-(1H-indol-3-yl)-3-(6-methoxy-5-(4-methyl-1H-imidazol-1-yl)pyridin-2-yl)-5,6-dihydro-4H-1,2,4-oxadiazine], for which the midpoint of the response, the EC50, lay at 136 nM. This lies in the sub-micromolar range. On the same count and under the same terms, next, `COc1nc(C2=NOCC(c3cc4ccc(C(F)(F)F)cc4o3)N2)ccc1-n1cnc(C)c1` (single isomer, unassigned; (+)) [Example 260B, (+)-3-(6-methoxy-5-(4-methyl-1H-imidazol-1-yl)pyridin-2-yl)-5-(6-(trifluoromethyl)benzofuran-2-yl)-5,6-dihydro-4H-1,2,4-oxadiazine]: 4.8 nM; `COc1nc(C2=NOCC(C3CCCC3)N2)ccc1-n1cnc(C)c1` (single isomer, unassigned; (+)) [Example 171A, (+)-5-cyclopentyl-3-(6-methoxy-5-(4-methyl-1H-imidazol-1-yl)pyridin-2-yl)-5,6-dihydro-4H-1,2,4-oxadiazine]: 918 nM.

In turn, `COc1nc(C2=NOCC(c3ccc4c(c3)CCC4)N2)ccc1-n1cnc(C)c1` (single isomer, unassigned; (-)) [Example 248A, (−)-5-(2,3-dihydro-1H-inden-5-yl)-3-(6-methoxy-5-(4-methyl-1H-imidazol-1-yl)pyridin-2-yl)-5,6-dihydro-4H-1,2,4-oxadiazine] yielded a concentration for a half-maximal effect (EC50) of 474 nM.

On to `COc1nc(C2=NOCC(c3cn(C)c4cc(F)cc(F)c34)N2)ccc1-n1cnc(C)c1` (single isomer, unassigned; (-)) [Example 226B, (−)-5-(4,6-difluoro-1-methyl-1H-indol-3-yl)-3-(6-methoxy-5-(4-methyl-1H-imidazol-1-yl)pyridin-2-yl)-5,6-dihydro-4H-1,2,4-oxadiazine], for which the EC50 is 71.4 nM. Same read-out and setting: as for `COc1nc(C2=NOCC(c3ccc(F)c(Cl)c3)N2)ccc1-n1cnc(C)c1` (single isomer, unassigned; (-)) [Example 108A, (−)-5-(3-chloro-4-fluorophenyl)-3-(6-methoxy-5-(4-methyl-1H-imidazol-1-yl)pyridin-2-yl)-5,6-dihydro-4H-1,2,4-oxadiazine], the figure is 2630 nM; as for `COc1nc(C2=NOCC(c3cccc(Cl)c3)N2)ccc1-n1cnc(C)c1` (single isomer, unassigned; (-)) [Example 244A, (−)-5-(3-chlorophenyl)-3-(6-methoxy-5-(4-methyl-1H-imidazol-1-yl)pyridin-2-yl)-5,6-dihydro-4H-1,2,4-oxadiazine], 668 nM.

The term EC50 denotes the concentration needed to bring the measured effect to its halfway point. A higher EC50 goes with lower potency in that assay.
